The values that follow come from patent US20220242853A1, “MODIFIED CYANINE DYES AND CONJUGATES THEREOF” (BRACCO IMAGING S.P.A., priority 2019, published 2022).

SMILES strings stand for the structures.

Data set [1] concerns the target T1, human serum albumin (HSA) (Homo sapiens, UniProt P02768).
T1 construct: purchased Sigma Aldrich A9511
Kind of data set: Binding affinity to human serum albumin (absorbance peak shift or ultrafiltration method). The note with it: phosphate buffer, 25° C., one of the two methods; read-out: HSA affinity (KA) (converted). Here is the method:
Binding affinity to human serum albumin (HSA; Sigma Aldrich, A9511) was measured using two methods, according to the level of binding affinity of the compounds.
The first method, optimal for compounds which strongly interact with HSA, is based on the analysis of the absorbance spectrum peak shift after the incubation of the dye in solutions containing HSA. Briefly, the samples were incubated at a fixed concentration (1 μM) with HSA dilutions (1×10^−6-4×10^−4M), in phosphate buffer for 5 min in the spectrophotometer at 25° C. before measurements. The measure was performed at the maximum absorbance wavelength of the shifted peak.
The second method, optimal for compound with low affinity for HSA, is based on measuring the variation of the absorbance of solutions containing the dye and various concentrations of HSA after ultrafiltration. Briefly, each compound was incubated at a fixed concentration (2 μM) with HSA dilutions (1×10^−6-4×10^−4 M), in phosphate buffer. The samples were centrifuged (10,000 g for 30 min at 25° C.) in a Microcon device (10 kDa MWCO, Amicon Ultra-0.5 Centrifugal Filter Unit with Ultracel-10 membrane, Millipore) and the absorbance measurements of the filtrates were obtained with the spectrophotometer at the maximum absorbance wavelength of the fluorophore.
For both methods, the affinity constant (KA, M^−1) was calculated by fitting the raw data with the following formula:
wherein ΔA/b=Absorbance measured (b=1 cm) KRL=KA calculated by regression analysis (curve fitting) Δε·Rt calculated by regression analysis (curve fitting) [L]=Albumin concentration
In the first method, ΔA/b corresponds to the absorbance measured for each sample, whereas in the second method ΔA/b is obtained subtracting the absorbance of the control sample (dye without HSA) to the absorbance of each other sample.
However, the measurement of the affinity constant is more precise when the suitable method is used as a function of the affinity level of the compound.

Data set [2] in a line: Biodistribution and elimination by optical imaging after intravenous administration. The data set is classed as in vivo, Balb/c nu/nu mice. The note with it: male, Balb/c nu/nu, mouse, in vivo, iv. As for the experimental part:
Biodistribution and elimination of the fluorescent agents of the invention was evaluated by optical imaging after intravenous administration in male Balb/c nu/nu mice, 6-10 weeks of age (Charles River Laboratories). Briefly, mice housed 4 per cage and fed with VRF1 (P) sterile diet (Special Diets Services Ltd) up to the end of the acclimation period (5 days). Then, AIN-76a rodent diet irradiated (Research Diets), a special diet that reduces auto-fluorescence, was used up to the end of the experiments. Imaging experiments were performed using the preclinical optical system IVIS Spectrum (Perkin Elmer).
In vivo imaging was performed under gas anesthesia (Sevofluorane 6-8% in oxygen). Animals were intravenously injected with the compounds and imaged longitudinally at 30 min, 1 h, 2 h, 3 h, 4 h, 6 h, and 24 h post-administration. Thus, animals were euthanized by anesthesia overdose, and the main tissues and organs of interest were excised for ex vivo optical imaging. Regions of interest (ROIs) were drawn on the tissues of interest for each fluorescence image at every time point to evaluate signal intensity (expressed as Average adiant Efficiency). The ratio between the fluorescence signal in the muscle (background tissue) and excretory organs (kidney, liver) was then calculated to assess the contrast. The tissue half-life was calculated by fitting the fluorescence signal decay in the muscle with a bi-exponential decay equation model using GraphPad Prism Software (version 5 for Windows).

In the next data set the test system is HT-29 cells. Kind of data set: Tumor uptake by optical imaging, subcutaneous human colorectal cancer model. It counts as in vivo, Athymic nude mice. The note with it: iv 1 nmol, tumor vs muscle. As for the experimental part:
Parallel experiments were performed in an animal model of human colorectal cancer (subcutaneous), using HT-29 cells, expressing low levels of integrin receptors. Briefly, the human colorectal adenocarcinoma cells HT-29 (ATCC, HTB-38) were cultured in McCoy's 5A medium supplemented with 10% foetal bovine serum, 2 mM glutamine, 100 IU/mL penicillin and 100 μg/mL streptomycin. Male Athymic nude mice, 4-6 weeks of age (Envigo), underwent subcutaneous implantation (right flank) of about 5 million cells suspended in 0.1 mL of serum-free medium. Mice were housed 4 per cage with food and water ad libitum. […] Then, AIN-76a rodent diet irradiated (Research Diets), a special diet that reduces auto-fluorescence, was used up to the end of the experiments. Tumor growth was monitored by longitudinal assessments using a caliper up to the target size of 300-600 mm^3 (3-4 weeks after cell implantation). […]
In vivo imaging was performed under gas anesthesia (Sevofluorane 6-8% in oxygen). […] Regions of interest (ROIs) were drawn on the tissues of interest for each fluorescence image at every time point to evaluate signal intensity (expressed as Average Radiant Efficiency). The ratio between the fluorescence signal in the tumor and in the muscle (background tissue) was then calculated to assess the contrast.

T1 sequence (P02768 25-609): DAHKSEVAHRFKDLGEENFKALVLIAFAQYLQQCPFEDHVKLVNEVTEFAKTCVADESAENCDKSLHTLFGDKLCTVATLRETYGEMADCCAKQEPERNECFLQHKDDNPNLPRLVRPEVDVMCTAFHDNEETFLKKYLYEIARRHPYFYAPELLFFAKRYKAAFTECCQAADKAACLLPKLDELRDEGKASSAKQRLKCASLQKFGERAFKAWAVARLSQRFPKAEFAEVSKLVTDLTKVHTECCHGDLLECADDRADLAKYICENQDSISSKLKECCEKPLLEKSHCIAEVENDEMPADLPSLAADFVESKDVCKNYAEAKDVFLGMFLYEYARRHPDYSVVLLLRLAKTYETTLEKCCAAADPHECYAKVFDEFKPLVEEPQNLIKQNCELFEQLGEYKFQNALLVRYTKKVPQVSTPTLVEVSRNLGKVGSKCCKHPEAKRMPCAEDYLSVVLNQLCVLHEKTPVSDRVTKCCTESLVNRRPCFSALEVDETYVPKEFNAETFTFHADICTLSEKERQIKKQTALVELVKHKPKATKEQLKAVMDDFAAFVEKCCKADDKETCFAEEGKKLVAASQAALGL

`CC(CC[N+]1=C(/C=C/C=C/C=C/C=C2/N(CCCCCC(=O)NCCCC[C@@H]3NC(=O)C(Cc4ccccc4)NC(=O)[C@H](CC(=O)O)NC(=O)CNC(=O)[C@H](CCCNC(=N)N)NC3=O)c3ccc(C(=O)NCC(O)C(O)C(O)C(O)CO)cc3C2(C)C)C(C)(C)c2cc(C(=O)NCC(O)C(O)C(O)C(O)CO)ccc21)S(=O)(=O)[O-]` (stereo partly drawn) [Compound 1]: in data set [1], the Kd was 159 µM. Also, the half-life in data set [2] was less than 1 h. In the data set on HT-29 cells, the “Tumor-to-background ratio (TBR)” value is 1.2-1.5.
